Test results: the supplement of paper PMC11061612

Assays:
Test in all cases: combination Emax (second highest fraction inhibited in the dose matrix, 72 h); higher = more inhibition; extreme values may be limits of the assay
[1] = test system: BFTC-905 (Bladder Carcinoma)
Outline: (§1)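 Cell lines in DMEM/F12 or RPMI with 10% FBS were plated in 1536-well plates, held 24 hours at 37°C, 5% CO2, then given two-drug dose matrices for 72 hours (DMSO typically 0.2%). Viability was read by CellTiter-Glo 2.0 luminescence and scaled as inhibition from 0 (vehicle wells) to 1 (blank wells). Combination Emax is the second-highest inhibition in the matrix; Bliss excess is observed combination effect minus expected EA + EB − EA·EB, EA and EB being single-agent effects.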

[2] = test system: BL-41 (Burkitt's Lymphoma)
Outline: as §1

[3] = test system: CAMA-1 (Breast Carcinoma)
Outline: as §1

[4] = test system: COLO-678 (Colorectal Carcinoma)
Outline: as §1

[5] = test system: DiFi (Colorectal Carcinoma)
Outline: as §1

ES8 (Ewing's Sarcoma) = test system: ES8 (Ewing's Sarcoma)
Outline: as §1

[6] = test system: EVSA-T (Breast Carcinoma)
Outline: as §1

[7] = test system: HL-60 (Acute Myeloid Leukemia)
Outline: as §1

[8] = test system: KM12 (Colorectal Carcinoma)
Outline: as §1

[9] = test system: KYSE-180 (Esophageal Squamous Cell Carcinoma)
Outline: as §1

LN-18 (Glioblastoma) = test system: LN-18 (Glioblastoma)
Outline: as §1

MEL-JUSO (Melanoma) = test system: MEL-JUSO (Melanoma)
Outline: as §1

[10] = test system: MOLT-16 (T-Lymphoblastic Leukemia)
Outline: as §1

[11] = test system: P12-ICHIKAWA (T-Lymphoblastic Leukemia)
Outline: as §1

[12] = test system: SW1417 (Colorectal Carcinoma)
Outline: as §1

[13] = test system: SW837 (Colorectal Carcinoma)
Outline: as §1

[14] = test system: TE-6 (Esophageal Squamous Cell Carcinoma)
Outline: as §1

[15] = test system: TOV-112D (Ovarian Carcinoma)
Outline: as §1

U251 (Low Grade Glioma) = test system: U251 (Low Grade Glioma)
Outline: as §1

WIL2-NS (Non-Cancerous) = test system: WIL2-NS (Non-Cancerous)
Outline: as §1

| SMILES | combination Emax [1] | combination Emax [2] | combination Emax [3] | combination Emax [4] | combination Emax [5] | combination Emax (ES8 (Ewing's Sarcoma)) | combination Emax [6] | combination Emax [7] | combination Emax [8] | combination Emax [9] | combination Emax (LN-18 (Glioblastoma)) | combination Emax (MEL-JUSO (Melanoma)) | combination Emax [10] | combination Emax [11] | combination Emax [12] | combination Emax [13] | combination Emax [14] | combination Emax [15] | combination Emax (U251 (Low Grade Glioma)) | combination Emax (WIL2-NS (Non-Cancerous)) |
| --- | --- | --- | --- | --- | --- | --- | --- | --- | --- | --- | --- | --- | --- | --- | --- | --- | --- | --- | --- | --- |
| COc1cc2ncnc(Nc3ccc(F)c(Cl)c3)c2cc1OCCCN1CCOCC1 [Gefitinib] + CC(C)n1c(=O)n(C)c2cnc3cc(F)c(-c4ccc(OCCCN5CCCCC5)nc4)cc3c21 [AZD1390] (first compound max 10 µM, 7x7, partner max 0.3 µM) | 0.212 | 0.279 | 0.111 | 0.306 | 0.919 | 0.178 | 0.27 | 0.0178 | 0.044 | 0.246 | 0.146 | 0.114 | 0.363 | 0.144 | 0.164 | 0.128 | 0.685 | 0.276 | 0.0432 | 0.397 |
| CS(=O)(=O)CCNCc1ccc(-c2ccc3ncnc(Nc4ccc(OCc5cccc(F)c5)c(Cl)c4)c3c2)o1 [Lapatinib] + C[C@@H](Oc1cc(-c2cnn(C3CCNCC3)c2)cnc1N)c1c(Cl)ccc(F)c1Cl [Crizotinib] (first compound max 10 µM, 7x7, partner max 10 µM) | 0.963 | 0.96 | 0.321 | 0.62 | 1 | 1 | 0.985 | 0.941 | 0.93 | 0.952 | 0.965 | 0.912 | 0.992 | 0.975 | 0.669 | 0.772 | 0.835 | 0.791 | 0.785 | 0.607 |
| CC(=O)c1c(C)c2cnc(Nc3ccc(N4CCNCC4)cn3)nc2n(C2CCCC2)c1=O [Palbociclib] + CC1(C)CCC(CN2CCN(c3ccc(C(=O)NS(=O)(=O)c4ccc(NCC5CCOCC5)c([N+](=O)[O-])c4)c(Oc4cnc5[nH]ccc5c4)c3)CC2)=C(c2ccc(Cl)cc2)C1 [Venetoclax] (first compound max 10 µM, 7x7, partner max 1 µM) | 0.326 | 0.312 | 0.142 | 0.222 | 0.47 | 0.461 | 0.209 | 0.736 | 0.683 | 0.188 | 0.383 | 0.143 | 0.985 | 0.671 | 0.147 | 0.0079 | 0.264 | 0.443 | 0.153 | 0.727 |
| CC(=O)c1c(C)c2cnc(Nc3ccc(N4CCNCC4)cn3)nc2n(C2CCCC2)c1=O [Palbociclib] + Cc1c2c(nn1C)CSCc1cc(n(C)n1)CSc1cc(c3ccccc3c1)OCCCc1c(C(=O)O)n(C)c3c-2c(Cl)ccc13 [AZD5991] (first compound max 10 µM, 7x7, partner max 1 µM) | 0.474 | 0.998 | 0.408 | 0.351 | 0.548 | 0.65 | 0.967 | 0.994 | 0.752 | 0.638 | 0.477 | 0.305 | 1 | 0.83 | 0.229 | 0.161 | 0.425 | 0.776 | 0.297 | 0.737 |
| CC(=O)c1c(C)c2cnc(Nc3ccc(N4CCNCC4)cn3)nc2n(C2CCCC2)c1=O [Palbociclib] + Cn1cnc2c(F)c(Nc3ccc(Br)cc3Cl)c(C(=O)NOCCO)cc21 [Selumetinib] (first compound max 10 µM, 7x7, partner max 10 µM) | 0.746 | 0.433 | 0.102 | 0.525 | 0.751 | 0.823 | 0.287 | 0.667 | 0.768 | 0.203 | 0.359 | 0.425 | 0.827 | 0.77 | 0.512 | 0.532 | 0.425 | 0.473 | 0.297 | 0.74 |
| COc1cccc(OCCCN)c1-c1cc(Nc2cnc(C#N)cn2)n[nH]1 [Prexasertib] + CCc1c2c(nc3ccc(O)cc13)-c1cc3c(c(=O)n1C2)COC(=O)[C@]3(O)CC [SN-38] (first compound max 1 µM, 7x7, partner max 0.3 µM) | 0.983 | 1 | 0.507 | 0.26 | 0.931 | 0.989 | 0.986 | 0.982 | 0.939 | 1 | 1 | 0.707 | 1 | 1 | 0.856 | 0.844 | 0.884 | 0.987 | 0.984 | 1 |
| C[C@@H](c1ccc2nccn2c1)n1nnc2ncc(-c3cnn(C)c3)nc21 [Savolitinib] + CC1(C)CCC(CN2CCN(c3ccc(C(=O)NS(=O)(=O)c4ccc(NCC5CCOCC5)c([N+](=O)[O-])c4)c(Oc4cnc5[nH]ccc5c4)c3)CC2)=C(c2ccc(Cl)cc2)C1 [Venetoclax] (first compound max 1 µM, 7x7, partner max 1 µM) | 0.164 | 0.106 | 0.17 | 0.146 | 0.11 | 0.259 | 0.201 | 0.658 | 0.058 | 0.134 | 0.146 | 0.126 | 0.58 | 0.188 | 0.126 | 0.14 | 0.124 | 0.0298 | 0.116 | 0.163 |
